Experiments:
PDE2 = molecular target: T1, PDE2 (Bos taurus, UniProt P14099); assay: Inhibition of PDE2, radioenzymatic phosphodiesterase assay; format: biochemical, bovine
T1 construct: PDE2 was prepared from bovine endothelial cells by the same methods; endogenous in cells; host or cells: bovine endothelial cells
T1 sequence (P14099 1-921): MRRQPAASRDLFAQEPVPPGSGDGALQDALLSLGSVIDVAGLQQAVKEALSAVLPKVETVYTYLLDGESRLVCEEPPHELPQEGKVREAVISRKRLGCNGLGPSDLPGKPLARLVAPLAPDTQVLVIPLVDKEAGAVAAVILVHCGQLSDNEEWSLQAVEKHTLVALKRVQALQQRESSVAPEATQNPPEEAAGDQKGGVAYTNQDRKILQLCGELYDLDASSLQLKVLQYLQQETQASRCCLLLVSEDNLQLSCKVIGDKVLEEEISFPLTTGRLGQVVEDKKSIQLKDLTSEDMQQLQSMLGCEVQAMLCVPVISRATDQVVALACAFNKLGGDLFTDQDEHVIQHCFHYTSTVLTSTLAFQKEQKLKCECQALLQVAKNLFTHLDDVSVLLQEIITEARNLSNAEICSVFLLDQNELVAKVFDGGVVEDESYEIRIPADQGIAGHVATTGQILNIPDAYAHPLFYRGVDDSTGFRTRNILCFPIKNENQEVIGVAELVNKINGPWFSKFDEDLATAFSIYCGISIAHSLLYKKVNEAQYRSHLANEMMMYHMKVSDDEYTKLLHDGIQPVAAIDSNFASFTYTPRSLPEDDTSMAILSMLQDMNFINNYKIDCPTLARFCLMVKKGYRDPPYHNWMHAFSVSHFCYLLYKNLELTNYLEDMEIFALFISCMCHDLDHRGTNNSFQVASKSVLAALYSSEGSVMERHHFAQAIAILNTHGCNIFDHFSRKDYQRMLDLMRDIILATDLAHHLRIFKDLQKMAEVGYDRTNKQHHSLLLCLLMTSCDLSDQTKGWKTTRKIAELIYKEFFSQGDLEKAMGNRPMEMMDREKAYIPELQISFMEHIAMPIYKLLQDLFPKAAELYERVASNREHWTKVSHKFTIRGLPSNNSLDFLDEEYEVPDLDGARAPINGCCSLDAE

PDE1 = assay: Selectivity: inhibition of PDE1, radioenzymatic phosphodiesterase assay; format: biochemical, bovine; conditions: 10 μM test compound; vascular smooth muscle
Description: (§1) A 3 g segment of bovine aortic media cut into pieces with scissors was homogenized with an ultra-turrax then a potter glass/glass homogenizer in 7 volumes by weight of buffer A containing a protease inhibitor cocktail (20 mM Tris-HCl, 0.25 M saccharose, 2 mM magnesium acetate, 1 mM dithiothreitol, 5 mM EGTA, 2000 U/ml aprotinin, 10 mg/l leupeptin and 10 mg/l soya trypsic inhibitor). The homogenizate was centrifuged at 105,000 g for 1 hour. The supernatant was loaded on a DEAE-Sephacel column (15 x 1.6 cm) pre-equilibrated with buffer B (buffer A without the saccharose, EGTA and protease inhibitors). The column was washed until there was no detectable absorption at 280 nm, then eluted with a linear gradient of NaCl (0-0.5 M) in buffer B. 3-ml fractions were collected and enzyme activity was determined under the conditions described hereinbelow to localize the different enzymes PDE1, PDE3, PDE4 and PDE5 which were aliquoted and frozen at −80° C. (Lugnier et al., Biochem. Phamacol., 1986, 35: 1746-1751). PDE2 was prepared from bovine endothelial cells by the same methods (Lugnier and Schini, Biochem. Pharmacol., 1990, 39: 75-84).
Cyclic nucleotide phosphodiesterase activity was determined by a radioenzymatic method using tritium-labelled cyclic GMP or AMP (1 μM) as substrate (Lugnier et al., 1986). ^3H-labelled adenosine or guanosine monophosphate formed by hydrolysis of the radiolabelled cyclic nucleotide was then converted to ^3H-labelled adenosine or guanosine in a second reaction with […] in excess. The nucleoside formed was separated from the nucleotides by anion exchange chromatography. Nucleoside radioactivity was determined by liquid scintillation counting. […]
(§2) The activity of the compounds was evaluated on other phosphodiesterase isoforms, particularly basal state or calmodulin-activated PDEl from vascular smooth muscle, PDE3, PDE4 and PDE5 from vascular smooth muscle.
(§3) The results obtained are presented in Tables 1 and 2 hereinbelow and are expressed as the percentage inhibition of enzymatic activity produced by […] of the test compound.

PDE4 = assay: Selectivity: inhibition of PDE4, radioenzymatic phosphodiesterase assay; format: biochemical, bovine; conditions: 10 μM test compound; vascular smooth muscle
Description: as §1
(§4) Cyclic nucleotide phosphodiesterase activity was determined by a radioenzymatic method using tritium-labelled cyclic GMP or AMP (1 μM) as substrate (Lugnier et al., 1986). ^3H-labelled adenosine or guanosine monophosphate formed by hydrolysis of the radiolabelled cyclic nucleotide was then converted to ^3H-labelled adenosine or guanosine in a second reaction with […] in excess. The nucleoside formed was separated from the nucleotides by anion exchange chromatography. Nucleoside radioactivity was determined by liquid scintillation counting. Enzymatic incubations were carried out under conditions allowing no more than 15% hydrolysis of the substrate; each point was performed in duplicate.
as §2, §3

PDE5 = molecular target: T2, PDE5 (Bos taurus, UniProt Q28156); assay: Selectivity: inhibition of PDE5, radioenzymatic phosphodiesterase assay; format: biochemical, bovine; conditions: 10 μM test compound; vascular smooth muscle; read-out: PDE5 percentage inhibition at 10 μM
T2 construct: localize the different enzymes PDE1, PDE3, PDE4 and PDE5 which were aliquoted and frozen; from tissue; host or cells: bovine aortic media (vascular smooth muscle)
Description: as §1, §4, §2, §3

mice = assay: Elevated plus maze test; format: in vivo, Balb/c or Swiss mice; conditions: oral, 1 hour before the test, all doses tested, recorded over 8 minutes, versus control
Description: This test was validated in the rat by Pellow in 1986 and in the mouse by Lister in 1987. It is based on an aversion to open spaces: the open arms elicit anxiety in the animals while the closed arms represent safety. By recording the frequency of entry into each arm, this test evaluates the anxiolytic effect of a molecule in comparison with a reference compound such as buspirone.
Ten to eleven-week old Balb/c or Swiss mice were used for the test. Mice were randomly divided into a control group (treated with the vehicle) and other groups treated with the test compounds.
The test apparatus was a PVC maze with a plexiglass lid, divided into four equivalent exploration arms (45×10 cm), all interconnected by a small platform (10×10 cm). The apparatus was placed 66 crn above the floor. Two arms were opened and the other two closed with a wall (height: 30 cm).
After administration, the mouse was placed on the platform opposite the closed arm. The number of entries and the time spent in each open arm were recorded over 8 minutes.
The treatment was administered 1 hour before the test. The compounds were given orally at different doses. N=10; *** p<0.005 and **** p<0.001 (versus control; Dunnett test).

Structure (SMILES): COc1cc2c(cc1OC)N(C)C(=O)CN=C2c1cccc(C(N)=O)c1 [Compound 5a, 3-(7,8-dimethoxy-1-methyl-2-oxo-2,3-dihydro-1H-1,4-benzodiazepin-5-yl)-benzamide]
- IC50 (PDE2): 1500 nM
- PDE1 percentage inhibition at 10 μM (PDE1): 13.2%
- PDE4 percentage inhibition at 10 μM (PDE4): 16.2%
- inhibition at 10 µM (PDE5): 17.6%
- percentage of time spent in the open arms (mice): spent more time in the open arms

From patent publication US20060128695A1, “Cyclic nucleotide phosphodiesterase inhibitors, preparation and uses” (NEURO3D, priority 2002, published 2006)
